Reference: patent publication US8901313B2, “6,5-heterocyclic propargylic alcohol compounds and uses therefor” (Genentech, Inc., priority 2011, dated 2014)

Legend:
[1] = test system: NF-kB signaling through NIK in human embryonic kidney 293 cells; experiment: 293-NIK NF-kB-Luciferase reporter assay; assay type: cell-based; details: HEK293, 293 cells with tetracycline-inducible NIK, 1 ug/mL doxycycline, 24 hours, read-out: inhibitory value (IC50) for 293-NIK NF-kB-Luciferase activity
From the text: (1) The first assay was used to profile whether a test compound can inhibit the NF-kB signally through NIK inhibition without affecting cell viability. In this assay, human embryonic kidney 293 cells was stably transfected with a tetracycline-inducible NIK DNA construct containing a cytomegalovirus promoter plus two reporter DNA constructs. One reporter encoded firefly luciferase under the control of three repeats of an NF-kB response element from the ELAM-1 gene and reflects the level of NIK activity in the cells, whereas the other reporter constitutively expressed Renilla luciferase under the control of the herpes simplex virus thymidine kinase promoter and served as a general measure of cell viability. Cells were incubated with different concentrations of compounds (0.2% DMSO final) in medium containing 1 ug/mL doxycycline and 10% tet-system approved fetal bovine serum (Clontech) for 24 hours, after which the reporters' signals were detected using the Dual Glo luciferase detection system (Promega) according to the vendor's protocol. The compounds listed in Table 1 have the corresponding inhibitory value (IC50 in micromolar) for 293-NIK NF-kB-Luciferase activity (values for compounds are presented in the same order as found in Table 1): na, 0.059, na, na, na, 0.105, 0.027, na, 20, 1.2, na, 1.8, 0.0231, 0.879, 0.0361, 0.582, na, 0.142, na, 0.403, 0.059, 0.0331, na, na, 0.0573, 1.5, na, na, 0.0722, na, na, 0.589, 12.7, 3.7, 14.9, na, 0.707, 1, 0.0311, 0.332, 0.309, 0.0142, 0.051, 2.8, 0.129, na, na, 1.5, na, na, na, 1.3, 0.062, 20, 0.31, 0.104, 0.091, 0.037, 0.085, 0.279, na, 0.305, 0.064, 0.332, 0.133, 0.168, 0.217, 0.553, na and na.

[2] = biological target: T1, nuclear factor-kappa B (NF-kB)-inducing kinase (NIK) (Homo sapiens, UniProt Q99558); experiment: NIK Enzyme Inhibition Assay (Transcreener ADP assay); assay type: biochemical; details: purified NIK 0.2-1 nM, 10 uM ATP, fluorescence polarization, Morrison's quadratic equation; read-out: inhibitory value (Ki) for NIK
T1 construct: made in house; host or cells: baculovirus-infected insect cells
T1 sequence (Q99558 whole entry): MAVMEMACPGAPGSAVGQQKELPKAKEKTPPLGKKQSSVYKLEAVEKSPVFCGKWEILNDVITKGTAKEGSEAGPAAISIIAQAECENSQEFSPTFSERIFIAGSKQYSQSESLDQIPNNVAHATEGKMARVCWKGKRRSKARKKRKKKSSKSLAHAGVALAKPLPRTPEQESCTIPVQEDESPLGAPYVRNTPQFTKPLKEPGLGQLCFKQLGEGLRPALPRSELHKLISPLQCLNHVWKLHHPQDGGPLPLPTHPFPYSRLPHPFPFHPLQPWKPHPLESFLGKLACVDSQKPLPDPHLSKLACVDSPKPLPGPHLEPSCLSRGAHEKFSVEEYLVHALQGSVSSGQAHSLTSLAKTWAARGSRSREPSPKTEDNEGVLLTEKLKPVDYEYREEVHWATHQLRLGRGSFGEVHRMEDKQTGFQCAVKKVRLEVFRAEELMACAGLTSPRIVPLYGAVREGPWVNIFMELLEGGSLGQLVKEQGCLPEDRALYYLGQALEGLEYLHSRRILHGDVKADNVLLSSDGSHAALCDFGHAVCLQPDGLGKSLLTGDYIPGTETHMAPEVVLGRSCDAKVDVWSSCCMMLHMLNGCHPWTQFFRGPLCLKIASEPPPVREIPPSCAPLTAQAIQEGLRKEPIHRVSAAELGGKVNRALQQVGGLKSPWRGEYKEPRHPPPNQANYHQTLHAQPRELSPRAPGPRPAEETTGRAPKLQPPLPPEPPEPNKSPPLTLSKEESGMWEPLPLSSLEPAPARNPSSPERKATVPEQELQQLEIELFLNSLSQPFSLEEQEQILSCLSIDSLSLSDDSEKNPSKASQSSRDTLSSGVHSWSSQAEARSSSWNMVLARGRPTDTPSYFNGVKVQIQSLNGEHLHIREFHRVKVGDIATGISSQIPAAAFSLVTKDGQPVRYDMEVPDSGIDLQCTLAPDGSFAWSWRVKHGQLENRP

[3] = test system: p52 (NF-kB2) nuclear translocation in HeLa cells; experiment: NIK p52 Translocation Assay (non-classical NF-kB signaling); assay type: cell-based; details: Homo sapiens; HeLa cells, 100 ng/mL anti-lymphotoxin beta receptor antibody, 5 hours; read-out: inhibitory value (IC50) for NIK p52 Translocation Assay
Protocol: (2) A second set of cell assay was used to define the selectivity of NIK inhibitors toward inhibition of classical vs. non-classical NF-kB signaling and rely on quantification of the nuclear translocation of p52 (NF-kB2) and REL-A (p65) using high content cellular imaging. For the p52 (non-classical NF-kB signaling) nuclear translocation assay, HeLa cells were treated with different concentrations of compounds (0.2% DMSO final) in medium containing 10% fetal bovine serum and then stimulated with 100 ng/mL of an anti-lymphotoxin beta receptor antibody (R&D Systems) for 5 hours. In the REL-A nuclear translocation assay, HeLa cells were incubated with compounds (0.2% DMSO final) for 4.5 hours in medium containing 10% fetal bovine serum before stimulating them with 10 ng/mL tumor necrosis factor (TNF)-α (R&D Systems) for 30 minutes. Cells were fixed with 4% paraformaldehyde, permeabilized by adding 0.1% Triton X-100 in phosphate buffered saline, and then incubated with either 2 ug/mL anti-p52 antibody (Millipore) or 400 ng/mL anti-REL-A (p65) antibody (Santa Cruz Biotechnology). Finally, the cells were incubated with an Alexa488-labeled secondary antibody (Invitrogen) and DRAQ5 DNA stain (Biostatus). Imaging was carried out using an Opera reader (Perkin Elmer) and data are analyzed with the aid of Acapella software (Perkin Elmer). The p52 or REL-A translocation into the nucleus was quantified by the ratio of the nuclear to cytoplasmic signal intensity. The concentration of inhibitor required for 50% inhibition (IC50 values) in these cell assays were derived from the plots of signal vs. inhibitor concentration. The compounds in listed in Table 1 have the corresponding inhibitory value (IC50 in micromolar) for NIK p52 Translocation Assay (values for compounds are presented in the same order as found in Table 1, and “na” means the data for this assay is to be determined): 0.326, 0.33, na, na, na, 0.218, 0.07, na, na, na, 0.129, 7.6, 0.077, 3.4, na, 0.518, na, 0.059, 0.514, 0.127, na, na, 0.010, na, na, 0.313, 0.275, na, 0.0727, na, na, na, na, na, na, 0.194, na, 6.4, 0.22, 0.346, na, na, na and na, na, na, na, na, na, 0.447, na, 0.089, 0.479, 0.489, 0.243, 0.747, 1, na, 1.9, 0.552, 2.1, na. na, na, na, na and na.

Row | Ki [2] [nM] | Compound | IC50 [1] [nM] | IC50 [3] [nM]
1 | 45.9 | N#Cc1ccc2cnn(-c3nc(N)ncc3N)c2c1 [Example T1-9, 1-(2,5-diaminopyrimidin-4-yl)-1H-indazole-6-carbonitrile] | 20000 | –
2 | 9.3 | Cc1nc2ccc(C#CC(C)(O)c3nccs3)cc2n1-c1ccnc(N)n1 (stereo not shown) [Example T1-12, 4-(1-(2-aminopyrimidin-4-yl)-2-methyl-1H-benzo[d]imidazol-6-yl)-2-(thiazol-2-yl)but-3-yn-2-ol] | 1800 | 7600
3 | 190 | CC(O)(C#Cc1ccc2cnn(-c3ccnc(N)n3)c2c1)C(F)F (stereo not shown) [Example T1-19, 4-(1-(2-aminopyrimidin-4-yl)-1H-indazol-6-yl)-1,1-difluoro-2-methylbut-3-yn-2-ol] | – | 514
4 | > 5000 | COc1ncccc1Nc1ncnc(-n2ncc3ccc(C#N)cc32)n1 [Example T1-23, 1-(4-(2-methoxypyridin-3-ylamino)-1,3,5-triazin-2-yl)-1H-indazole-6-carbonitrile] | – | 10
5 | 18 | CC(O)(C#Cc1ccc2cnn(-c3ccnc(N)n3)c2c1)c1cn[nH]c1 (stereo not shown) [Example T1-35, 4-(1-(2-aminopyrimidin-4-yl)-1H-indazol-6-yl)-2-(1H-pyrazol-4-yl)but-3-yn-2-ol] | 14900 | –
6 | 850 | CC(C)(O)C#Cc1ccc2cnn(-c3cc(N)ncn3)c2c1 [Example T1-36, 4-(1-(6-aminopyrimidin-4-yl)-1H-indazol-6-yl)-2-methylbut-3-yn-2-ol] | – | 194
7 | 152 | CC(O)(C#Cc1ccc2ncn(-c3nccc(N)n3)c2c1)c1nccs1 (stereo not shown) [Example T1-50, 4-(1-(4-aminopyrimidin-2-yl)-1H-benzo[d]imidazol-6-yl)-2-(thiazol-2-yl)but-3-yn-2-ol] | – | 447
8 | 383 | Cc1nonc1C(C)(O)C#Cc1ccc2c(C)nn(-c3ccnc(N)n3)c2c1 (stereo not shown) [Example T1-61, 4-(1-(2-aminopyrimidin-4-yl)-3-methyl-1H-indazol-6-yl)-2-(4-methyl-1,2,5-oxadiazol-3-yl)but-3-yn-2-ol] | – | 2100
9 | 2 | CC(O)(C#Cc1ccc2c(C(=O)Nc3cccnc3)nn(-c3ccnc(N)n3)c2c1)c1ncccn1 (stereo not shown) [Example T1.1-143, 1-(2-aminopyrimidin-4-yl)-6-(3-hydroxy-3-pyrimidin-2-yl-but-1-ynyl)-N-(3-pyridyl) indazole-3-carboxamide] | – | –
10 | 3 | CC(O)(C#Cc1ccc2c(C(=O)N3CCOCC3)nn(-c3ccnc(N)n3)c2c1)c1ncco1 (stereo not shown) [Example T1.1-144, [1-(2-aminopyrimidin-4-yl)-6-(3-hydroxy-3-oxazol-2-yl-but-1-ynyl)indazol-3-yl]-morpholino-methanone] | – | –
11 | 11 | CC(O)(C#Cc1ccc2c(C(=O)N3CCCC(O)C3)nn(-c3ccnc(N)n3)c2c1)c1ncccn1 (stereo not shown) [Example T1.1-145, [1-(2-aminopyrimidin-4-yl)-6-(3-hydroxy-3-pyrimidin-2-yl-but-1-ynyl)indazol-3-yl]-(3-hydroxy-1-piperidyl)methanone] | – | –
12 | 4 | CC(O)(C#Cc1ccc2c(C(=O)N3CC(C#N)C3)nn(-c3ccnc(N)n3)c2c1)c1ncccn1 (stereo not shown) [Example T1.1-147, 1-[1-(2-aminopyrimidin-4-yl)-6-(3-hydroxy-3-pyrimidin-2-yl-but-1-ynyl)indazole-3-carbonyl]azetidine-3-carbonitrile] | – | –
13 | 0.1 | CC(O)(C#Cc1ccc2c(C(=O)NC3COC3)nn(-c3ccnc(N)n3)c2c1)c1ncccn1 (stereo not shown) [Example T1.1-148, 1-(2-aminopyrimidin-4-yl)-6-(3-hydroxy-3-pyrimidin-2-yl-but-1-ynyl)-N-(oxetan-3-yl)indazole-3-carboxamide] | – | –

The remaining lines, values behind:

Row | Compound | Ki [2] [nM] | IC50 [1] [nM] | IC50 [3] [nM]
14 | CC1(C(=O)Nc2cnc(N)nc2-n2ncc3ccc(C#N)cc32)COC1 [Example T1-11, N-(2-amino-4-(6-cyano-1H-indazol-1-yl)pyrimidin-5-yl)-3-methyloxetane-3-carboxamide] | 559 | – | 129
15 | CC(O)(C#Cc1ccc2ncn(-c3ccnc(N)n3)c2c1)C(F)(F)F (stereo not shown) [Example T1-27, 4-(1-(2-aminopyrimidin-4-yl)-1H-benzo[d]imidazol-6-yl)-1,1,1-trifluoro-2-methylbut-3-yn-2-ol] | 570 | – | 275
16 | CC(O)(C#Cc1ccc2ncn(-c3ccnc(N)n3)c2c1)c1cn[nH]c1 (stereo not shown) [Example T1-33, 4-(1-(2-aminopyrimidin-4-yl)-1H-benzo[d]imidazol-6-yl)-2-(1H-pyrazol-4-yl)but-3-yn-2-ol] | 23 | 12700 | –
17 | CC(O)(C#Cc1ccc2ncn(-c3ccnc(N)n3)c2c1)C1CC1 (stereo not shown) [Example T1-34, 4-(1-(2-aminopyrimidin-4-yl)-1H-benzo[d]imidazol-6-yl)-2-cyclopropylbut-3-yn-2-ol] | 92.1 | 3700 | –
18 | CC(O)(C#Cc1ccc2ncn(-c3ccnc(N)n3)c2c1)CF (stereo not shown) [Example T1-37, 4-(1-(2-aminopyrimidin-4-yl)-1H-benzo[d]imidazol-6-yl)-1-fluoro-2-methylbut-3-yn-2-ol] | 2.3 | 707 | –
19 | CC(O)(C#Cc1ccc2c(C(=O)N3CC4CC4C3)nn(-c3ccnc(N)n3)c2c1)c1ncccn1 (stereo not shown) [Example T1.1-140, [1-(2-aminopyrimidin-4-yl)-6-(3-hydroxy-3-pyrimidin-2-yl-but-1-ynyl)indazol-3-yl]-(3-azabicyclo[3.1.0]hexan-3-yl)methanone] | 5.28 | – | –
20 | CN(C(=O)c1nn(-c2ccnc(N)n2)c2cc(C#CC(C)(O)c3ncccn3)ccc12)c1ccccn1 (stereo not shown) [Example T1.1-142, 1-(2-aminopyrimidin-4-yl)-6-(3-hydroxy-3-pyrimidin-2-yl-but-1-ynyl)-N-methyl-N-(2-pyridyl)indazole-3-carboxamide] | 7 | – | –
21 | CC(O)(C#Cc1ccc2c(C(=O)N3CC(O)C3)nn(-c3ccnc(N)n3)c2c1)c1ncccn1 (stereo not shown) [Example T1.1-146, [1-(2-aminopyrimidin-4-yl)-6-(3-hydroxy-3-pyrimidin-2-yl-but-1-ynyl)indazol-3-yl]-(3-hydroxyazetidin-1-yl)methanone] | 3400 | – | –
22 | CC(O)(C#Cc1ccc2c(C(=O)N3CCOCC3)nn(-c3ccnc(N)n3)c2c1)c1ncccn1 (stereo not shown) [Example T1.1-149, [1-(2-aminopyrimidin-4-yl)-6-(3-hydroxy-3-pyrimidin-2-yl-but-1-ynyl)indazol-3-yl]-morpholino-methanone] | 0.3 | – | –
23 | CC(O)(C#Cc1ccc2c(C(=O)NCC#N)nn(-c3ccnc(N)n3)c2c1)c1ncccn1 (stereo not shown) [Example T1.134, 1-(2-aminopyrimidin-4-yl)-N-(cyanomethyl)-6-(3-hydroxy-3-pyrimidin-2-yl-but-1-ynyl) indazole-3-carboxamide] | 2 | – | –
